{"source": "patent US20170202792A1", "about": "“METHOD FOR TREATING TAU-ASSOCIATED DISEASES” (NATIONAL TAIWAN NORMAL UNIVERSITY, priority 2016, published 2017)", "test_system": "cholinergic, serotonergic and noradrenergic neurons", "experiment": "Immunohistochemical staining in brain region (ChAT, TH, 5HT neurons)", "format": "in vivo, mouse", "details": "for 5HT (serotonergic neurons in the Raphe nucleus) quantification / TH (noradrenergic neurons in the LC region) quantification: 0.25 mg/kg i.p. daily 28 days", "experimental": "Hyperglycemia was induced by streptozotocin (STZ) to accelerated Alzheimer's disease progression of 6-month-old male transgenic 3×Tg−AD mice. Half of the 3×Tg−AD mice (n=30) received STZ (100 mg/kg) intraperitoneal injection at days 1, 2, 8, and 9 respectively as the high blood glucose group (HBG); another half of the 3×Tg-AD mice (n=30) received sodium citrate (0.1 M) at the same time points as the normal blood glucose group (NBG). Then, HBG and NBG were divided into two groups respectively to give four groups such as NBG-compound (I), HBG-compound (I), NBG-DMSO, and HBG-DMSO with n=15 in each group; wherein 0.25 mg/kg of compound (I) (in 30 μL) were intraperitoneal injected into those mice of NBG-compound (I) and HBG-compound (I) groups daily since day 14 for 28 days, and 30 μL of DMSO solvent were intraperitoneal injected into those mice of NBG-DMSO and HBG-DMSO groups daily since day 14 for 28 days. Both mouse body weight (BW) and blood glucose (BG) were monitored every week.\nNeurons including the cholinergic neurons in the medial septum (MS), vertical diagonal band of Broca (VDB), and horizontal diagonal band of Broca (HDB) regions; the serotonergic neurons in the Raphe nucleus; and the noradrenergic neurons in the locus coeruleus (LC) region, which are related to cognition in the other brain regions were examined.\nAfter the brain tissue of the mice were fixed and dehydrated, the tissue was cryosectioned (30 μm). The cryosections were then washed with phosphate buffered saline (PBS) for three times. After the optimal cutting temperature compound (OCT) was removed, 3% H2O2was used to remove the endogenous peroxidase, and the cryosections were blocked by the blocking solution for 1 hour to reduce non-specific antigen reactions. The primary antibodies (ChAT, TH, 5HT) were added and reacted for 12 hours, the secondary antibody (1:200 dilution in blocking solution, Vecter) was added and reacted for 1 hour, and then, the avidin-biotin complex was added and reacted for 1 hour. Finally, DAB-kit was used for coloring. All the stained sections were attached to the slides, dried, dehydrated, and mounted for imaging and quantification (Image Pro Plus)."}
{"smiles": "CCCCC/C=C\\C/C=C\\C/C=C\\C/C=C\\CCCC(=O)Nc1ccc(O)cc1", "note": "[compound (I), (5Z, 8Z, 11Z,14Z)-N-(4-Hydroxyphenyl)icosa-5 ,8 , 11,14-tetraen amide]", "values": [{"measurement": "5HT (serotonergic neurons in the Raphe nucleus) quantification", "setting": "HBG 3×Tg-AD mice", "value": "33.00 ± 1.78↑↑↑"}, {"measurement": "TH (noradrenergic neurons in the LC region) quantification", "setting": "HBG 3×Tg-AD mice", "value": "56.89 ± 4.45↓"}, {"measurement": "5HT (serotonergic neurons in the Raphe nucleus) quantification", "setting": "NBG 3×Tg-AD mice", "value": "31.80 ± 2.04"}, {"measurement": "TH (noradrenergic neurons in the LC region) quantification", "setting": "NBG 3×Tg-AD mice", "value": "75.75 ± 3.12"}, {"measurement": "cholinergic neurons (ChAT; MS, VDB, HDB regions)", "setting": "data not shown, among groups", "value": "no difference was identified"}]}
